Assay results published in ChEMBL document CHEMBL1629502, “Labeling study of avidin by modular method for affinity labeling (MoAL)” (Bioorg Med Chem Lett, 2010).
Calls of active or inactive are those of the source. No cut-off for these calls is given here.

How the values were obtained:
[1] = Binding affinity to avidin at 80 uM by UV-vis spectroscopy
[2] = Binding affinity to avidin by UV-vis spectroscopy
[3] = Binding affinity to avidin at 1.6 mM by UV-vis spectroscopy

| Structure (SMILES) | Activity [1] | also measured |
| --- | --- | --- |
| CN(C)CC(=O)OCCCCCCCCCCNC(=O)CCCCCNC(=O)CCCC[C@@H]1SC[C@@H]2NC(=O)N[C@@H]21 | Active |  |
| CN(C)CC(=O)OCCCCCCNC(=O)CCCCCNC(=O)CCCC[C@@H]1SC[C@@H]2NC(=O)N[C@@H]21 | Active |  |
| O=C(O)CCCC[C@@H]1SC[C@@H]2NC(=O)N[C@@H]21 |  | Ka [2]: 1e+15 M⁻¹ |
| CN(C)CC(=O)OCCCCCCCCNC(=O)CCCCCNC(=O)CCCC[C@@H]1SC[C@@H]2NC(=O)N[C@@H]21 | Active |  |
| NCCNC(=O)COc1cc(S(=O)(=O)O)c2ccc3c(S(=O)(=O)O)cc(S(=O)(=O)O)c4ccc1c2c43 |  | Activity [3]: Active |
| CN(C)CC(=O)OCCCCCNC(=O)CCCCCNC(=O)CCCC[C@@H]1SC[C@@H]2NC(=O)N[C@@H]21 | Active |  |
| CN(C)CC(=O)OCCCCNC(=O)CCCCCNC(=O)CCCC[C@@H]1SC[C@@H]2NC(=O)N[C@@H]21 | Active |  |
| NCc1ccc(Br)cc1 |  | Activity [2]: Active |
| COc1nc(Cl)nc(OC)n1 |  | Activity [3]: Active |
| CN(C)S(=O)(=O)c1ccc(NCCN)c2nonc12 |  | Activity [2]: Active |
